Calls of active or inactive are those of the source. The calls are words filed in the database; no cut-off is given here.
Columns and labels:
Bipolaris oryzae = test: Antifungal activity against Bipolaris oryzae assessed as inhibition of fungal growth incubated for 5 days by paper disk method; format: functional, organism-based; conditions: time 5.0 day
COLO 201 = test: Cytotoxicity against human COLO201 cells assessed as inhibition of cell proliferation incubated for 24 hrs by WST-1 reagent based titer-plate reader assay; format: functional

SMILES | Activity (Bipolaris oryzae) | Activity (COLO 201)
CC1C2CC3(O)OC(C)(O2)C(=O)C1C3O (stereo unspecified) | inactive | inactive
CC1C=CC2(O)CC(=O)C(=O)C1C2O (stereo unspecified) | inactive | inactive
C[C@@H]1C=C[C@@]2(O)[C@H](O)[C@@H]1C(=O)[C@]1(O)O[C@H]3C(=O)[C@@H]4[C@H](C)C=C[C@](O)([C@H]3[C@H]21)[C@@H]4O | inactive | inactive

Reference: ChEMBL document CHEMBL5335850, “Isolation of Paraphaeoketones: A Plausible Biosynthetic Explanation for Paraphaeolactones via a Benzilic Acid Rearrangement Rather than a Favorskii Rearrangement” (J Nat Prod, 2024)
